Source: patent US20240124431A1, “2,3-DIHYDRO-4H-BENZO[B][1,4]OXAZIN-4-YL)(5-(PHENYL)-PYRIDIN-3-YL)METHANONE DERIVATIVES AND SIMILAR COMPOUNDS AS CYP11A1 INHIBITORS FOR THE TREATMENT OF PROSTATE CANCER” (ORION CORPORATION, priority 2020, published 2024)

Molecular target: T1, CYP11A1 (Homo sapiens, UniProt P05108)
T1 construct: endogenous in cells; host or cells: NCI-H295R
T1 sequence (P05108 40-521): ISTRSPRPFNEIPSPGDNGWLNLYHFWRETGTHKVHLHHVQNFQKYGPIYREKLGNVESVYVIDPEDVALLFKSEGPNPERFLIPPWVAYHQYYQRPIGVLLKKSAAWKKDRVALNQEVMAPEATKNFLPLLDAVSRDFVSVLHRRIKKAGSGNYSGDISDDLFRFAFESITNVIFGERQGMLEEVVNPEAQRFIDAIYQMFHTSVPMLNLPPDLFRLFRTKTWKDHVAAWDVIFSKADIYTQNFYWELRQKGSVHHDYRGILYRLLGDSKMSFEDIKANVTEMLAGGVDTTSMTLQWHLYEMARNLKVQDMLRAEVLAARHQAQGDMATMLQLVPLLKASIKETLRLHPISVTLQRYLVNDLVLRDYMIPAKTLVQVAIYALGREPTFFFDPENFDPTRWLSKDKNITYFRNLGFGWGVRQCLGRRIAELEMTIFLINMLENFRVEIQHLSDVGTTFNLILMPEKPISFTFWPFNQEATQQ
Experiment: CYP11A1 inhibition: pregnenolone biosynthesis measured by ELISA in NCI-H295R cells
Assay type: cell-based
Settings: NCI-H295R cells treated for 24 hours, 10 concentrations in duplicates, read-out: IC50 on CYP11A1 inhibition (Group)
Experimental: The ability of the test compounds to inhibit pregnenolone biosynthesis was measured by enzyme-linked immunosorbent assay (ELISA) detecting pregnenolone (Abnova Pregnenolone ELISA Kit, KA1912). […] To determine the half maximal inhibitory concentration (IC50) of the test compounds on CYP11A1 inhibition, the cells were treated for 24 hours with increasing concentrations of the test compound. The final DMSO concentration was 0.4%. Medium samples were diluted 1:6 and pregnenolone amounts determined with ELISA. Manufacturer's recommended protocols were used and pregnenolone (Sigma-Aldrich, P9129) standards were prepared in cell culture medium. Absorbance (A450) was measured with Envision plate reader (PerkinElmer). All the test compounds were studied at 10 concentrations in duplicates.

**Q.** How did the IC50 turn out when O=C(c1cncc(-c2cccc(OC(F)(F)F)c2)c1)N1CCOc2ccccc21 [Compound 1, (2,3-Dihydro-4H-benzo[b][1,4]oxazin-4-yl)(5-(3-(trifluoromethoxy)phenyl)-pyridin-3-yl)methanone] was run?
**A.** Its IC50 is 0.201 to 2.5 µM.

**Q.** How did the IC50 turn out when O=C(c1cncc(-c2ccc(F)cc2)c1)N1CCOc2cc(F)ccc21 [Compound 2, (7-Fluoro-2,3-dihydro-4H-benzo[b][1,4]oxazin-4-yl)(5-(4-fluorophenyl)pyridin-3-yl)methanone] was run?
**A.** Its IC50 is < 0.05 µM.

**Q.** Cc1c(C(=O)N2CCOc3ccccc32)cncc1-c1ccccc1 [Compound 3, (2,3-Dihydro-4H-benzo[b][1,4]oxazin-4-yl)(4-methyl-5-phenylpyridin-3-yl)-methanone] was tested. Which IC50 did it give?
**A.** The IC50 was 0.051 to 0.2 µM.

**Q.** For Cc1c(C(=O)N2CCCc3ccccc32)cncc1-c1ccccc1 [Compound 4, (3,4-Dihydroquinolin-1(2H)-yl)(4-methyl-5-phenylpyridin-3-yl)methanone], which IC50 is on record?
**A.** The IC50 was 0.051 to 0.2 µM.

**Q.** Which IC50 does the source give for Cc1c(C(=O)N2CCOc3ccccc32)cncc1-c1ccc(F)cc1 [Compound 5, (2,3-Dihydro-4H-benzo[b][1,4]oxazin-4-yl)(5-(4-fluorophenyl)-4-methylpyridin-3-yl)methanone] here?
**A.** Its IC50 is < 0.05 µM.

**Q.** How did the IC50 turn out when O=C(c1cc(-c2ccc(F)cc2)cnn1)N1CCOc2ccccc21 [Compound 7, (2,3-Dihydro-4H-benzo[b][1,4]oxazin-4-yl)(5-(4-fluorophenyl)pyridazin-3-yl)-methanone] was run?
**A.** Its IC50 is 0.201 to 2.5 µM.

**Q.** O=C(c1cncc(-c2ccc3ncoc3c2)n1)N1CCOc2ccccc21 [Compound 8, (6-(Benzo[d]oxazol-6-yl)pyrazin-2-yl)(2,3-dihydro-4H-benzo[b][1,4]oxazin-4-yl)methanone] was tested. Which IC50 did it give?
**A.** Its IC50 is < 0.05 µM.

**Q.** With O=C(c1cncc(-c2cccc(OC(F)(F)F)c2)n1)N1CCOc2ccccc21 [Compound 9, (2,3-Dihydro-4H-benzo[b][1,4]oxazin-4-yl)(6-(3-(trifluoromethoxy)phenyl)-pyrazin-2-yl)methanone] as the compound, how does the IC50 read?
**A.** The IC50 was 0.051 to 0.2 µM.

**Q.** Which IC50 does the source give for O=C(c1cncc(-c2ccccc2)c1)N1CCOc2ccccc21 [Compound 10, (2,3-Dihydro-4H-benzo[b][1,4]oxazin-4-yl)(5-phenylpyridin-3-yl)methanone] here?
**A.** Its IC50 is < 0.05 µM.

**Q.** With O=C(c1cncc(-c2ccc3c(c2)OCC3)n1)N1CCCc2ccccc21 [Compound 12, (6-(2,3-Dihydrobenzofuran-6-yl)pyrazin-2-yl)(3,4-dihydroquinolin-1(2H)-yl)-methanone] as the compound, how does the IC50 read?
**A.** The IC50 was < 0.05 µM.

**Q.** How did the IC50 turn out when O=C(c1cncc(-c2ccc3c(c2)OCC3)n1)N1CCOc2ccccc21 [Compound 13, (2,3-Dihydro-4H-benzo[b][1,4]oxazin-4-yl)(6-(2,3-dihydrobenzofuran-6-yl)pyrazin-2-yl)methanone] was run?
**A.** Its IC50 is < 0.05 µM.

**Q.** COc1ccc(-c2cncc(C(=O)N3CCCc4ccccc43)n2)cc1 [Compound 14, (3,4-Dihydroquinolin-1(2H)-yl)(6-(4-methoxyphenyl)pyrazin-2-yl)methanone] was tested. Which IC50 did it give?
**A.** The IC50 was < 0.05 µM.

**Q.** Which IC50 does the source give for O=C(c1cncc(-c2ccccc2)n1)N1CCCc2ccccc21 [Compound 15, (3,4-Dihydroquinolin-1(2H)-yl)(6-phenylpyrazin-2-yl)methanone] here?
**A.** Its IC50 is < 0.05 µM.

**Q.** How did the IC50 turn out when O=C(c1cncc(-c2ccc(F)cc2)c1)N1CCCc2ccccc21 [Compound 16, (3,4-Dihydroquinolin-1(2H)-yl)(5-(4-fluorophenyl)pyridin-3-yl)methanone] was run?
**A.** Its IC50 is < 0.05 µM.

**Q.** With COc1ccc(-c2cncc(C(=O)N3CCCc4ccccc43)c2)cc1 [Compound 18, (3,4-Dihydroquinolin-1(2H)-yl)(5-(4-methoxyphenyl)pyridin-3-yl)methanone] as the compound, how does the IC50 read?
**A.** The IC50 was < 0.05 µM.

**Q.** With O=C(c1cncc(-c2ccc(F)c(F)c2)c1)N1CCOc2ccccc21 [Compound 19, (5-(3,4-Difluorophenyl)pyridin-3-yl)(2,3-dihydro-4H-benzo[b][1,4]oxazin-4-yl)-methanone] as the compound, how does the IC50 read?
**A.** Its IC50 is < 0.05 µM.

**Q.** How did the IC50 turn out when O=C(c1cncc(-c2ccc(F)cc2)n1)N1CCOc2ccccc21 [Compound 20, (2,3-Dihydro-4H-benzo[b][1,4]oxazin-4-yl)(6-(4-fluorophenyl)pyrazin-2-yl)-methanone] was run?
**A.** Its IC50 is < 0.05 µM.

**Q.** Which IC50 does the source give for CN1CCN(C(=O)c2cncc(-c3ccc(F)cc3)n2)c2ccccc21 [Compound 21, (6-(4-Fluorophenyl)pyrazin-2-yl)(4-methyl-3,4-dihydroquinoxalin-1(2H)-yl)-methanone] here?
**A.** The IC50 was < 0.05 µM.

**Q.** For CC1CCc2ccccc2N1C(=O)c1cncc(-c2ccc(F)cc2)n1 (centres unmarked) [Compound 22, (6-(4-Fluorophenyl)pyrazin-2-yl)(2-methyl-3,4-dihydroquinolin-1(2H)-yl)-methanone], which IC50 is on record?
**A.** Its IC50 is < 0.05 µM.

**Q.** How did the IC50 turn out when COc1ccc(-c2cncc(C(=O)N3CCOc4ccccc43)c2)cc1 [Compound 23, (2,3-Dihydro-4H-benzo[b][1,4]oxazin-4-yl)(5-(4-methoxyphenyl)pyridin-3-yl)-methanone] was run?
**A.** Its IC50 is < 0.05 µM.

**Q.** How did the IC50 turn out when O=C(c1cncc(-c2ccc(F)cc2)c1)N1CCOc2ccccc21 [Compound 24, (2,3-Dihydro-4H-benzo[b][1,4]oxazin-4-yl)(5-(4-fluorophenyl)pyridin-3-yl)-methanone] was run?
**A.** The IC50 was < 0.05 µM.

**Q.** For COc1cccc(-c2cncc(C(=O)N3CCCc4ccccc43)n2)c1 [Compound 25, (3,4-Dihydroquinolin-1(2H)-yl)(6-(3-methoxyphenyl)pyrazin-2-yl)methanone], which IC50 is on record?
**A.** Its IC50 is < 0.05 µM.

**Q.** How did the IC50 turn out when CC1COc2ccccc2N1C(=O)c1cncc(-c2ccc(F)cc2)n1 (centres unmarked) [Compound 26, (6-(4-Fluorophenyl)pyrazin-2-yl)(3-methyl-2,3-dihydro-4H-benzo[b][1,4]oxazin-4-yl)methanone] was run?
**A.** The IC50 was < 0.05 µM.

**Q.** With O=C(c1cncc(-c2ccc(F)c(O)c2)c1)N1CCOc2ccccc21 [Compound 27, (2,3-Dihydro-4H-benzo[b][1,4]oxazin-4-yl)(5-(4-fluoro-3-hydroxyphenyl)-pyridin-3-yl)methanone] as the compound, how does the IC50 read?
**A.** Its IC50 is < 0.05 µM.

**Q.** With O=C(c1cncc(-c2ccc(F)cc2F)c1)N1CCOc2ccccc21 [Compound 28, (5-(2,4-Difluorophenyl)pyridin-3-yl)(2,3-dihydro-4H-benzo[b][1,4]oxazin-4-yl)-methanone] as the compound, how does the IC50 read?
**A.** The IC50 was < 0.05 µM.

**Q.** O=C(c1cncc(-c2ccc3c(c2)OCC3)n1)N1CCOC2CCCCC21 (centres unmarked) [Compound 29, (6-(2,3-Dihydrobenzofuran-6-yl)pyrazin-2-yl)(octahydro-4H-benzo[b][1,4]-oxazin-4-yl)methanone] was tested. Which IC50 did it give?
**A.** Its IC50 is < 0.05 µM.

**Q.** For O=C(c1cnnc(-c2ccc(F)cc2)c1)N1CCCc2ccccc21 [Compound 30, (3,4-Dihydroquinolin-1(2H)-yl)(6-(4-fluorophenyl)pyridazin-4-yl)methanone], which IC50 is on record?
**A.** The IC50 was < 0.05 µM.

**Q.** With CN1CCN(C(=O)c2cncc(-c3ccc(F)cc3)c2)c2ccccc21 [Compound 31, (5-(4-Fluorophenyl)pyridin-3-yl)(4-methyl-3,4-dihydroquinoxalin-1(2H)-yl)-methanone] as the compound, how does the IC50 read?
**A.** The IC50 was < 0.05 µM.

**Q.** For O=C(c1cncc(-c2ccc([N+](=O)[O-])cc2)c1)N1CCOc2ccccc21 [Compound 32, (2,3-Dihydro-4H-benzo[b][1,4]oxazin-4-yl)(5-(4-nitrophenyl)pyridin-3-yl)-methanone], which IC50 is on record?
**A.** The IC50 was < 0.05 µM.

**Q.** How did the IC50 turn out when O=C(c1cncc(C2=CCCCC2)c1)N1CCOc2ccccc21 [Compound 33, (5-(Cyclohex-1-en-1-yl)pyridin-3-yl)(2,3-dihydro-4H-benzo[b][1,4]oxazin-4-yl)methanone] was run?
**A.** The IC50 was < 0.05 µM.

**Q.** For COc1ccc(-c2cncc(C(=O)N3CCCc4ncccc43)c2)cc1 [Compound 34, (3,4-Dihydro-1,5-naphthyridin-1(2H)-yl)(5-(4-methoxyphenyl)pyridin-3-yl)-methanone], which IC50 is on record?
**A.** Its IC50 is < 0.05 µM.

**Q.** For CCOC(=O)C1CN(C(=O)c2cncc(-c3ccc(F)cc3)n2)c2ccccc2O1 (centres unmarked) [Compound 35, Ethyl 4-(6-(4-fluorophenyl)pyrazine-2-carbonyl)-3,4-dihydro-2H-benzo[b][1,4]-oxazine-2-carboxylate], which IC50 is on record?
**A.** Its IC50 is < 0.05 µM.

**Q.** How did the IC50 turn out when O=C1CCN(C(=O)c2cncc(-c3ccccc3)c2)c2ccccc21 [Compound 36, 1-(5-Phenylnicotinoyl)-2,3-dihydroquinolin-4(1H)-one] was run?
**A.** The IC50 was < 0.05 µM.

**Q.** Which IC50 does the source give for O=C(c1cncc(-c2ccccc2)n1)N1CCCc2ncccc21 [Compound 37, (3,4-Dihydro-1,5-naphthyridin-1(2H)-yl)(6-phenylpyrazin-2-yl)methanone] here?
**A.** Its IC50 is < 0.05 µM.

**Q.** How did the IC50 turn out when COc1cccc(-c2cncc(C(=O)N3CCCc4ccccc43)c2)c1 [Compound 38, (3,4-Dihydroquinolin-1(2H)-yl)(5-(3-methoxyphenyl)pyridin-3-yl)methanone] was run?
**A.** Its IC50 is < 0.05 µM.

**Q.** With O=C(c1cncc(-n2cccc2)c1)N1CCCc2ccccc21 [Compound 39, (5-(1H-Pyrrol-1-yl)pyridin-3-yl)(3,4-dihydroquinolin-1(2H)-yl)methanone] as the compound, how does the IC50 read?
**A.** The IC50 was < 0.05 µM.

**Q.** How did the IC50 turn out when O=C(c1cnnc(-c2ccc(F)cc2)c1)N1CCOc2ccccc21 [Compound 40, (2,3-Dihydro-4H-benzo[b][1,4]oxazin-4-yl)(6-(4-fluorophenyl)pyridazin-4-yl)-methanone] was run?
**A.** The IC50 was < 0.05 µM.

**Q.** With O=C(c1cncc(-c2ccccc2F)c1)N1CCOc2ccccc21 [Compound 41, (2,3-Dihydro-4H-benzo[b][1,4]oxazin-4-yl)(5-(2-fluorophenyl)pyridin-3-yl)-methanone] as the compound, how does the IC50 read?
**A.** Its IC50 is < 0.05 µM.
